Measured values taken from patent publication US11896604B2, “Composition comprising HMSs/HMOs and use thereof” (Glycom A/S, priority 2014, dated 2024).

Legend:
[1] = system: human LS174T cell culture model of goblet cells; experiment: Mucosal barrier function: goblet cell gene expression by quantitative RT-PCR; assay type: cell-based; conditions: 5 mg HMO/ml, compared to control cultures
Procedure: 2′-FL and LNnT are tested with respect to their ability to induce MUC2, TFF3, EIMβ, CHST5, and GAL3ST2 expression in the human LS174T cell culture model of goblet cells. The human LS174T cell line is obtained from the American Type Culture Collection (ATCC). LS174T cells are maintained in minimum essential medium (MEM) supplemented according to instructions at 37° C. in 5% CO2. 2′-FL and LNnT are dissolved in cell culture grade water to the required concentration. The LS174T cells are treated with the HMO solution containing 0 or 5 mg HMO/ml. The LS174T cells are collected and suspended in Trizol reagent and total RNA is isolated using an RNA analysis kit (Qiagen) according to the manufacturer's instructions and the RNA isolates are quantified using Nanodrop analysis (Thermo Fisher Scientific). RNA isolates are reverse transcribed using a high capacity cDNA Reverse Transcription Kit (Applied Biosystems) to create cDNA, which is then used to assess gene expression via quantitative RT-PCR. For the quantitative RT-PCR, specific TaqMAN gene expression assays are obtained from Applied Biosystems, which include expression assays for MUC2, TFF3, CHST5 and GAL3ST2. Quantitative real-time PCR is performed using TaqMAN PCR Master Mix (Applied Biosystems). Reactions are run in duplicates in a 384-well plate using an Applied Biosystems 7900HT Fast Real-Time PCR System. The results are analysed using SDS 2.3 software and calculated by delta delta Ct method. All samples are normalized to Gus-β expression and fold induction is calculated over untreated controls. Gene expression is expressed as fold increase compared to HMO-free control cells. The experiment is repeated three times.

IBS-D patients = conditions: cited from earlier work

Compound	expression of the MUC2 gene [1]	expression of the TFF3 gene [1]	induction of CHST5 [1]	induction of GAL3 ST2 [1]	bowel movement (IBS-D patients)
CC(=O)N[C@H]1[C@H](O[C@H]2[C@@H](O)[C@@H](CO)O[C@@H](O[C@H]3[C@H](O)[C@@H](O)C(O)O[C@@H]3CO)[C@@H]2O)O[C@H](CO)[C@@H](O[C@@H]2O[C@H](CO)[C@H](O)[C@H](O)[C@H]2O)[C@@H]1O (mixture of isomers) [LNnT, lacto-N-neotetraose]	increases	increases	minimal induction	lack of induction	
CO[C@H]1/C=C/O[C@@]2(C)Oc3c(C)c(O)c4c(O)c(c5c(nc6cc(C)ccn65)c4c3C2=O)NC(=O)/C(C)=C\C=C\[C@H](C)[C@H](O)[C@@H](C)[C@@H](O)[C@@H](C)[C@H](OC(C)=O)[C@@H]1C [rifaximin]					reduce
2′-fucosyllactose [2′-FL]	increases	increases	minimal induction	lack of induction	
